Results published in BindingDB's records for doi:10.1016/j.bioorg.2017.02.017 (Warsaw University of Technology, 2017).
pKi: −log10 of the molar value.

Each molecule was assayed against Casein kinase II subunit alpha (Homo sapiens, UniProt P68400) (assay: CK2α Inhibition Assay).
Casein kinase II subunit alpha, sequence (P68400 whole entry): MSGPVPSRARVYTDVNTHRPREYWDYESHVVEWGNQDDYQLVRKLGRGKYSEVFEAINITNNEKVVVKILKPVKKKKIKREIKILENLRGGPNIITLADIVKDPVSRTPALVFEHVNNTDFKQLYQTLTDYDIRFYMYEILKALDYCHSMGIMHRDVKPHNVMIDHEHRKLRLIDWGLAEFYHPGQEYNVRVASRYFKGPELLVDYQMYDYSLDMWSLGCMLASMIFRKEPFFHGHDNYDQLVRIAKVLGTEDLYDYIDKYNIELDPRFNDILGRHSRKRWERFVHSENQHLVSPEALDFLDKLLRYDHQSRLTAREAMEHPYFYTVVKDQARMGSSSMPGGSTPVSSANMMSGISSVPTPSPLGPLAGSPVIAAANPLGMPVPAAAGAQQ
Procedure: The activity of CK2α was tested using P81 filter isotopic assay, as it was described earlier [Łukowska-Chojnacka et al., Bioorg.

| SMILES | pKi |
| --- | --- |
| O=C(O)CCc1cn(CCn2cnc3c(Br)c(Br)c(Br)c(Br)c32)nn1 [3-{1-[2-(4,5,6,7-Tetrabromo-1H-benzimidazol-1-yl)ethyl]-1H-1,2,3-triazole-4-yl}propanoic acid (8)] | 5.27 |
| O=C(O)c1cn(CCCn2nc3c(Br)c(Br)c(Br)c(Br)c3n2)nn1 [1-[3-(4,5,6,7-Tetrabromo-2H-benzotriazol-2-yl)propyl]-1H-1,2,3-triazole-4-carboxylic acid (22)] | 5.61 |
| O=C(O)c1cn(CCCn2cnc3c(Br)c(Br)c(Br)c(Br)c32)nn1 [1-[3-(4,5,6,7-Tetrabromo-1H-benzimidazol-1-yl)propyl]-1H-1,2,3-triazole-4-carboxylic acid (10)] | 6.04 |
| O=C(O)CCc1cn(CCCn2nc3c(Br)c(Br)c(Br)c(Br)c3n2)nn1 [3-{1-[3-(4,5,6,7-Tetrabromo-2H-benzotriazol-2-yl)propyl]-1H-1,2,3-triazole-4-yl}propanoic acid (23)] | 5.50 |
| O=C(O)c1cn(CCn2cnc3c(Br)c(Br)c(Br)c(Br)c32)nn1 [1-[2-(4,5,6,7-Tetrabromo-1H-benzimidazol-1-yl)ethyl]-1H-1,2,3-triazole-4-carboxylic acid (7)] | 5.71 |
| [N-]=[N+]=NCCn1cnc2c(Br)c(Br)c(Br)c(Br)c21 [1-(2-Azidoethyl)-4,5,6,7-tetrabromo-1H-benzimidazole (3)] | 5.63 |
| [N-]=[N+]=NCCCn1cnc2c(Br)c(Br)c(Br)c(Br)c21 [1-(3-Azidopropyl)-4,5,6,7-tetrabromo-1H-benzimidazole (5)] | 5.48 |
| O=C(O)CCc1cn(CCCn2cnc3c(Br)c(Br)c(Br)c(Br)c32)nn1 [3-{1-[3-(4,5,6,7-Tetrabromo-1H-benzimidazol-1-yl)propyl]-1H-1,2,3-triazole-4-yl}propanoic acid (11)] | 5.63 |
| Cc1c(Br)c(Br)c(Br)c2nc[nH]c12 [4,5,6-tribromo-7-methyl-1H-benzimidazole (13)] | 5.65 |
